Measurements: patent publication EP0212822A1, “A composition containing a plant growth regulator and an alkanol and a method of using the same” (ICI AMERICAS INC., priority 1985, dated 1987)
“Also recorded” adds a separate entry of the source.

Legend:
[1] = system: Liquidambar styraciflua (Sweetgum); test: Trunk injection of PGR in ethanol or methanol, ratings; format: in vivo
Method: The examples which follow exemplify the improvements obtained by this invention. However, these examples are not intended to limit the scope of the invention. In Examples 1-41, the subject trees were injected at a distance approximately one foot from the soil line by drilling 7/32 inch diameter holes to a 2 inch depth at a 30-45° angle tangential to the trunk with a pressure injector (150 psi) purchased from the Asplundh Tree Expert Co., Company No. 346-3502. The results are expressed in terms of Retardation and Uniformity Ratings. The Retardation rating scale is as follows: • 0 = no retardataion • 1 = 1-20% retardation • 2 = 21-40% retardation • 3 = 41-60% retardation • 4 = 61-80% retardation • 5 = 81-100% retardation
The Uniformity Rating is a measure of the consistency of response to the treatment between different branches of the tree. The Uniformity scale employed is as follows: • 0 = no effect from PGR • 1 = poor • 2 = fair • 3 = acceptable • 4 = very good • 5 = excellent
20 grams of PGR were dissolved in 1 liter of solvent at room temperature and stirred until the solution was clear, approximately 20 minutes. The solution was injected into the trunk of Liquidambar styraciflua (Sweetgum).

Vicia faba (Broadbean) = test: Stem injection with hypodermic syringe, growth as % of control; format: in vivo; conditions: 0.1 ml injected, averaged over four replications
Method: 10 grams of PGR were dissolved in 1 liter of solvent at room temperature and stirred until the solution was clean, approximately 20 minutes. 0.1 ml of the solution was injected, […] above the soil level, in Vicia faba (Broadbean) with a hypodermic syringe.

[2] = Adsorption of tracer dyes to sawdust; format: physicochemical, Birch and Ash
Method: 0.1 g of methylene blue and 0.1 g of acid fuschin were each dissolved in 1 liter of methanol (Me), […] methanol/water (Me/Wa) and water (Wa). 2 g (fresh weight) of sawdust taken from the active conductive tissues of Birch and Ash were combined with 20 ml of solution. The dye solutions were shaken overnight. The supernatant was decanted and the quantity of dye remaining in solution estimated by spectroscopy.

[3] = week 2, 20 grams of PGR in 1 liter Ethanol
[4] = week 2, 20 grams of PGR in 1 liter Methanol
[5] = week 6, 20 grams of PGR in 1 liter Ethanol
[6] = week 6, 20 grams of PGR in 1 liter Methanol
[7] = 14 days, 10 grams of PGR in 1 liter Ethanol
[8] = 14 days, 10 grams of PGR in 1 liter Methanol
[9] = 21 days, 10 grams of PGR in 1 liter Ethanol
[10] = 21 days, 10 grams of PGR in 1 liter Methanol

Row | binding of dye to wood ([2]; methanol as solvent) | binding of dye to wood ([2]; methanol as solvent, listed as Methylene blue) | binding of dye to wood ([2]; water as solvent) | binding of dye to wood ([2]; water as solvent, listed as Methylene blue) | SMILES | Retardation/ Uniformity Ratings at Indicated Week After Treatment [1, 3] | Retardation/ Uniformity Ratings at Indicated Week After Treatment [1, 4] | Retardation/ Uniformity Ratings at Indicated Week After Treatment [1, 5] | Retardation/ Uniformity Ratings at Indicated Week After Treatment [1, 6] | Growth (% Control) At Indicated Days After Treatment (Vicia faba (Broadbean); [7]) | Growth (% Control) At Indicated Days After Treatment (Vicia faba (Broadbean); [8]) | Growth (% Control) At Indicated Days After Treatment (Vicia faba (Broadbean); [9]) | Growth (% Control) At Indicated Days After Treatment (Vicia faba (Broadbean); [10]) | binding of dye to wood ([2]; either solvent (water and methanol))
1 | – | – | – | – | CC(C)(C)C(O)C(Cc1ccc(Cl)cc1)n1cncn1 (stereo not drawn) [PGR-1] | 1 (1 = 1-20% retardation) | 1 (1 = 1-20% retardation) | 3 (3 = 41-60% retardation) | 4 (4 = 61-80% retardation) | 13 % Control | 12 % Control | 18 % Control | 17 % Control | –
2 | – | – | – | – | CC(C)C(O)(c1ccc(OC(F)(F)F)cc1)c1cncnc1 (stereo not drawn) [PGR-2] | 1 (1 = 1-20% retardation) | 1 (1 = 1-20% retardation) | 3 (3 = 41-60% retardation) | 3 (3 = 41-60% retardation) | 6 % Control | 10 % Control | 7 % Control | 10 % Control | –
3 | – | – | – | – | CC1=CC(=C(c2ccc(N)c(S(=O)(=O)O)c2)c2ccc(N)c(S(=O)(=O)O)c2)C=C(S(=O)(=O)O)C1=N [acid fuschin] | – | – | – | – | – | – | – | – | binds only partially; also recorded: binds weakly
4 | binds weakly | weakly | binding almost completely | binds strongly | CN(C)c1ccc2nc3ccc(=[N+](C)C)cc-3sc2c1 [methylene blue] | – | – | – | – | – | – | – | – | –
